Results published in patent publication US11207337B2, “Co-therapy comprising canagliflozin and phentermine for the treatment of obesity and obesity related disorders” (Janssen Pharmaceutica NV, priority 2015, dated 2021).

Key:
[1] = 26 week randomized, double-blind, placebo-controlled clinical trial: body weight; assay type: in vivo, human; settings: for Absolute Body Weight Change from Baseline at Week 26, LS Mean / Body weight % Change from Baseline at Week 26, LS Mean: MMRM; for Body weight % Change from Baseline at Week 26, LS Mean: overweight or obese non-diabetic adults; for Absolute Body Weight Change from Baseline at Week 26, Diff. of LS Means Minus Placebo / Body weight % Change from Baseline at Week 26, Diff. of LS Means Minus Placebo: placebo-subtracted; for estimated contribution to the weight loss observed at Week 26: share of the weight loss in the co-therapy group
Description: (§1) The safety and efficacy of combination treatment with 300 mg canagliflozin and 15 mg phentermine was investigated in a 26 week, randomized, double-blind, placebo-controlled, parallel group, multi-center study. (Complete study protocol filed and available as STUDY 28431754-OBE2002 on www.clinicaltrials.gov).
(§2) The study began with a 4-week single blind placebo run-in period. […] All subjects were provided with diet and exercise counseling for weight loss (standardized non-pharmacological therapy) and were instructed to follow the diet and exercise program throughout the study.
(§3) The modified intent-to-treat (mITT) analysis set included all randomized subjects who had received at least one dose of study drug. The primary efficacy endpoint was percent change from baseline in body weight at Week 26. The secondary efficacy endpoints included (1) proportion of subjects with weight loss ≥5% at Week 26, (2) absolute change from baseline in SBP ([…]) at Week 26, and (3) absolute change from baseline in body weight at Week 26. The inclusion of canagliflozin 300 mg and phentermine 15 mg as separate treatment groups allowed for a descriptive estimate of relative contribution of the individual components to the observed weight loss in the co-therapy canagliflozin 300 mg/phentermine 15 mg group and provided efficacy and safety data on canagliflozin 300 mg in the non-diabetic, overweight/obese population. Safety analyses included treatment-emergent adverse events (referred to as adverse events in this document), laboratory tests (including chemistry and hematology), and vital signs (blood pressure and pulse rate).
The change from baseline in absolute body weight at Week 26 was analyzed with an MMRM similar to the primary efficacy endpoint.

[2] = 26 week placebo-controlled clinical trial: pulse rate (vital signs); assay type: in vivo, human
Description: as §1, §2, §3

[3] = 26 week placebo-controlled clinical trial: systolic and diastolic blood pressure; assay type: in vivo, human; settings: Week 26; for Systolic Blood Pressure Change From Baseline, LS Mean: MMRM; for Diastolic Blood Pressure, Mean change / Diastolic Blood Pressure, Median change / Systolic Blood Pressure, Mean change / Systolic Blood Pressure, Median change: change from baseline, observed; for Systolic Blood Pressure Change From Baseline, Diff. of LS Means Minus Placebo: placebo-subtracted
Description: as §1, §2, §3
The reduction in diastolic blood pressure of −1.6 mm Hg (baseline 80 mm Hg) was not statistically significant.

[4] = tested on: C. elegans; settings: BOHB treatment of the worm (C. elegans); Edwards et al. 2014; cited from earlier work
[5] = metformin on its own, in the diabetic; cited from earlier work
[6] = Week 26, change from baseline, observed

CC(C)(N)Cc1ccccc1 [Phen 15 mg, 2-methyl-1-phenylpropan-2-amine]
Absolute Body Weight Change from Baseline at Week 26, LS Mean [1]: -4.1 kg
Body weight % Change from Baseline at Week 26, LS Mean [1]: −4.1%
Absolute Body Weight Change from Baseline at Week 26, Diff. of LS Means Minus Placebo [1]: -3.5 kg
Body weight % Change from Baseline at Week 26, Diff. of LS Means Minus Placebo [1]: −3.5%
estimated contribution to the weight loss observed at Week 26 [1]: 50%
pulse, LS Mean change from baseline (SE) ([2]; Week 26): 4.1 (1.0) bpm
Pulse Rate, Mean change [2, 6]: 5.02 BEATS/MIN
Pulse Rate, Median change [2, 6]: 4.67 BEATS/MIN
Systolic Blood Pressure Change From Baseline, LS Mean [3]: −1.4 mmHg
Diastolic Blood Pressure, Mean change [3]: 0.55 mmHg
Diastolic Blood Pressure, Median change [3]: 0.67 mmHg
Systolic Blood Pressure, Mean change [3]: −1.13 mmHg
Systolic Blood Pressure, Median change [3]: −0.33 mmHg
Systolic Blood Pressure Change From Baseline, Diff. of LS Means Minus Placebo [3]: 1.3 mmHg

Cc1ccc([C@@H]2O[C@H](CO)[C@@H](O)[C@H](O)[C@H]2O)cc1Cc1ccc(-c2ccc(F)cc2)s1 [Cana 300 mg, (1S)-1,5-anhydro-1-[3-[[5-(4-fluorophenyl)-2-thienyl]methyl]-4-methylphenyl]-D-glucitol]
Absolute Body Weight Change from Baseline at Week 26, LS Mean [1]: -1.9 kg
Body weight % Change from Baseline at Week 26, LS Mean [1]: −1.9%
Absolute Body Weight Change from Baseline at Week 26, Diff. of LS Means Minus Placebo [1]: -1.3 kg
Body weight % Change from Baseline at Week 26, Diff. of LS Means Minus Placebo [1]: −1.3%
estimated contribution to the weight loss observed at Week 26 [1]: 18%
Pulse Rate, Mean change ([2]; human, in vivo): 1.64 BEATS/MIN
Pulse Rate, Median change ([2]; human, in vivo): 0.83 BEATS/MIN
pulse, LS Mean change from baseline (SE) ([2]; human, in vivo): 0.7 (1.0) bpm
Systolic Blood Pressure Change From Baseline, LS Mean [3]: −3.1 mmHg
Diastolic Blood Pressure, Mean change [3]: −1.32 mmHg
Diastolic Blood Pressure, Median change [3]: −1.17 mmHg
Systolic Blood Pressure, Mean change [3]: −3.31 mmHg
Systolic Blood Pressure, Median change [3]: −1.67 mmHg
Systolic Blood Pressure Change From Baseline, Diff. of LS Means Minus Placebo [3]: −0.4 mmHg

CC(O)CC(=O)O (stereo not drawn) [BOHB, beta-hydroxybutyrate]
increase in lifespan [4]: ~20%

CN(C)C(=N)N=C(N)N [metformin]
average improvement in the HbA1c value [5]: 1.0-1.5%
